Experimental data: patent US4465843A, “Process for the preparation of derivatives of 2-pyrrole acetic acid with anti-inflammatory activity” (Laboratories Pharmedical SA, priority 1981, dated 1984)
Read-outs that look alike come from different tables or passages of the source.

Assays:
[1] = system: paw edema as induced by carrageenin; assay: anti-inflammatory activity, paw edema induced by carrageenin in the female rat (Winter et al); assay type: in vivo; conditions: po
[2] = system: contorsions as induced by acetic acid; assay: analgesic activity, contorsions induced by acetic acid by intraperitoneal route in the rat (Koster et al); assay type: in vivo; conditions: ip
[3] = anti-inflammatory activity, carrageenin paw edema, female rat, p.os, read-out: ED50
[4] = analgesic activity, acetic acid contorsions (i.p.), rat, p.os, read-out: ED50

Row | Compound | ED50 [1, 3] [mg/kg] | ED50 [2, 4] [mg/kg] | ED50 ([2]; Rattus norvegicus) [mg/kg] | ED50 ([1]; Rattus norvegicus) [mg/kg]
1 | CCn1c(CC(=O)O)cc(C)c1C(=O)c1ccccc1 [Example 4] | 48 | 82 |  | 
2 | Cc1cc(CC(=O)O)n(C)c1C(=O)c1ccc(Cl)cc1 [Example 2, acetic acid] | 1.7 | 2.5 |  | 
3 | CCn1c(CC(=O)O)cc(C)c1C(=O)c1ccc(Cl)cc1 [Example 3] | 21.2 | 31 |  | 
4 | CC(=O)Oc1ccccc1C(=O)O [acetyl salicylic acid, reference compound] |  |  | 110 | 
5 | COc1ccc2c(c1)c(CC(=O)O)c(C)n2C(=O)c1ccc(Cl)cc1 [Indomethacin, reference compound] |  |  |  | 2.85
